Data set [1] relates to O. lignaria female antennae. Kind of data set: EAG response to specific fatty acids and mixtures. More on the design: species or system Osmia lignaria. Conditions: O. lignaria (n = 12); 100 CE. The text has this: (§1) The objective of this example is to compare antennal responses of three Osmia species (O. lignaria, O. bucephala, and O. cornifrons obtained from near a Pennsylvania apple orchard) to each of three fatty acids, each combined mixture of two acids, and the combined mixture of all acids (see Table 11). Female and male bees are maintained in laboratory cages and fed honey-water ad libitum for four days. On the fourth day, one antenna at a time is removed from each chilled, live female test bee with scissors and placed on the electrode probe of a Syntech EAG (Kirchzarten, Germany). The electrode with the antenna is inserted into a glass tube into which flows humidified air, and into which a stimulus (air, a fatty acid, or fatty acid mixture) is applied.
(§2) Each of the above indicated fatty acids, purchased from Sigma-Aldrich (St. Louis, Mo.), are dissolved in ethyl alcohol at a concentration similar to that used for the Synthetic Blend. Each fatty acid and each mixture (Equistar Chemicals, LP, Houston, Tex.) is evenly applied to a circular filter paper in Petri dish (9 cm) at dose of 100 CE. A 1.5 cm^2 piece of filter paper is cut from the center of the filter paper circle. The piece of filter paper is placed into the disposable glass pipette (4.6 cm) that is used for delivery by applying a controlled puff of air over the filter paper.
(§3) Each of the single or mixtures of fatty acids described above (see Table 11) and a control (air) are tested on an antenna: Air or filter paper pieces with each fatty acid or fatty acids mixture are delivered in succession every minute until an antenna is exposed to each cue and air three times (total test period=30 minutes). The antennal responses are recorded, and their amplitudes are measured using Syntech EAG software (Kirchzarten, Germany). The antennal responses of ≦12 female bees per species are recorded. […]

Data set [2] has as its system O. cornifrons female antennae. Put plainly: EAG response to specific fatty acids and mixtures. Conditions: O. cornifrons (n = 12); 100 CE. More on the design: species or system Osmia cornifrons.
Excerpt: as §1, §2, §3

Data set [3] concerns O. bucephala female antennae. Kind of data set: EAG response to specific fatty acids and mixtures. To be noted: O. bucephala (n = 8); 100 CE. More on the design: species or system Osmia bucephala.
Excerpt: as §1, §2, §3

A further data set has as its system O. lignaria. Put plainly: Field tests with fatty acids on filter papers, apple orchard in Utah. The data set is classed as in vivo, Osmia lignaria. Conditions: single fatty acid set; for Cells/replicate / Nests/replicate / Females/date: 400 CE per nest site; for Cells/replicate / Nests/replicate: five replicates; for Females/date: mean ± SE for 9 sample dates; for females found in artificial nest sites, range: 9 sample dates. The text has this:
To better understand whether application of one, or some mixture of, free fatty acids to nesting material or artificial nest sites is attractive to O. lignaria, two experimental sets are generated so that one set tests for differences in bee response to each single fatty acid and the other set tests for differences in bee response to mixtures of the fatty acids described above in Table 11. Fatty acids are applied to separate filter papers so that each filter paper contains 200 CE. As a negative control, the volume of ethyl alcohol used for the other samples is applied to its own filter paper. For the experiment in an apple orchard in Utah, each small, corrugated plastic box artificial nest site (20×23×20 cm), with two bundles of 19 paper tubes each, is hung in an apple tree; nest sites are separated by one tree between them within each replicate group. To each nest site, two of the 200 CE impregnated filter papers are applied; thus, a total of 400 CE of the stimulus is present within each nest site. Each filter paper (containing either a single fatty acid, one mixture of fatty acids, or the negative control) is attached using cable ties to the front of one tube in each of the two bundles in each artificial nest site. The filter papers are replaced weekly. Each artificial nest site contains only one type of treatment. For the single fatty acid comparison, artificial nest sites are placed in the orchard in five replicates of the three treatments plus a control (i.e., four nest sites per replicate), with each artificial nest site opening facing southeast. For the mixtures of fatty acids comparison, artificial nest sites are placed in the orchard in five replicates of the four treatments plus a control (i.e., five nest sites per replicate), with each artificial nest site opening facing southeast. Both experimental sets are located in the same orchard where they are intermittently placed but separated by at least two rows of apple trees. A total of 540 female and 1000 male bees are released throughout the orchard at least one tree row from the artificial nest sites using several release box sites (with equal numbers of bees per box). Artificial nest sites are checked daily for the presence of male and female bees and for tubes with completed nests. Tubes with completed nests are removed and are replaced with fresh ones. Later, all nests containing any bee cells are examined with x-radiography to determine number of cells in each nest.

Data set [4] in a line: Evaporation rates of attractants (weight loss of vials). It counts as physicochemical. As for the experimental part: The objective of this experiment is to quantify the loss of the fatty acids and Synthetic Blend via evaporation. Synthetic Blend is prepared as per Example 3. Decanoic acid, dodecanoic acid, and tetradecanoic acid are purchased as per Example 4. Synthetic Blend is a liquid at room temperature. Vials containing between 0.235 and 0.304 grams of either Synthetic Blend or each individual fatty acid are placed in a 40° C. incubator and a ˜30° C. incubator room with a fan and are weighed after 1, 4, 10, 24, 31, 39 and 44 days. Three vials are monitored for each attractant, and the average weight loss is calculated. All samples lose weight faster at 30° C. with airflow compared to 40° C. without airflow. After […] at 30° C. with airflow, Synthetic Blend loses only 0.57% of its weight (see FIG. 2). This loss of mass is caused mostly by evaporation of decanoic acid which comprises approximately 73% of Synthetic Blend. After 24 days, Synthetic Blend loses 9.8% of its mass and after 44 days, 17.2% of its mass. A linear relationship is found between weight loss and days for both environments (see FIG. 3).

As to `CCCCCCCCCCCC(=O)O` [Dodecanoic acid, dodecanoic acid], the “Mean Amplitude ± SE” value in data set [1] is listed as −0.41 ± 0.03. The “Mean Amplitude ± SE” value in data set [2] is reported as −0.43 ± 0.04. The “Mean Amplitude ± SE” value in data set [3] is listed as −0.83 ± 0.06. In the data set with O. lignaria, this molecule showed a Cells/replicate of 8.8 ± 7.40, a Nests/replicate of 1.4 ± 1.17 and a Females/date of 3.4 ± 0.67.
On to `CCCCCCCCCC(=O)O` [Decanoic acid, decanoic acid], for which, in data set [4], the “relative evaporation of blend components” value was “evaporated much faster than tetradecanoic acid and dodecanoic acid”. Besides, the “Mean Amplitude ± SE” value in data set [1] is recorded as −0.98 ± 0.06. In addition, in data set [2], the “Mean Amplitude ± SE” value was −0.89 ± 0.06. Further, the “Mean Amplitude ± SE” value in data set [3] was −1.31 ± 0.10. Moreover, in the data set on O. lignaria, the “females found in artificial nest sites, range” value was 4-15; the Cells/replicate came to 13.4 ± 6.13; the Nests/replicate is on record as 2.6 ± 1.17; the Females/date stood at 10.2 ± 1.14.
As for `CCCCCCCCCCCCCC(=O)O` [Tetradecanoic acid, tetradecanoic acid], the “Mean Amplitude ± SE” value in data set [1] is given as −0.41 ± 0.03. Moreover, in data set [2], the “Mean Amplitude ± SE” value was −0.43 ± 0.04. In addition, in data set [3], the “Mean Amplitude ± SE” value is −0.92 ± 0.07. For the same molecule, in the data set on O. lignaria, the “females found in artificial nest sites, range” value is 0-1; the Cells/replicate is on record as 1.6 ± 1.6; the Nests/replicate came out at 0.2 ± 0.2; the Females/date is listed as 0.4 ± 0.17.

These data come from patent publication US9301521B2, “Bee attractants” (priority 2013, dated 2016).
